Columns and labels:
[1] = target: T1, ΔF508-CFTR (Homo sapiens, UniProt P13569, DEL508-508); experiment: CFTR cell surface levels using HRP-tagged ΔF508-CFTR expressing CFBE cells, in the presence of a co-corrector; format: cell-based; details: HRP-tagged ΔF508-CFTR expressing CFBE cells, in the presence of 3 μM co-corrector; for EC50: read-out: EC50
T1 construct: host or cells: CFBE41o-, doxycycline-inducible
Procedure, shortened: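 Cells were seeded with 0.5 μg/mL doxycycline and held 68 h at 37 °C. Test compounds plus 3 μM co-corrector (final 0.1% DMSO) were then added for 20 h at 33 °C. Washed cells received HRP substrate, and luminescence was normalized between DMSO and 3 μM co-corrector controls.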

[2] = target: T1, ΔF508-CFTR; experiment: CFTR cell surface levels using HRP-tagged ΔF508-CFTR expressing CFBE cells, intrinsic corrector capacity; format: cell-based; details: HRP-tagged ΔF508-CFTR CFBE41o- cells, compounds alone (intrinsic corrector capacity), 20 hours at 33° C.; for % Activation: positive control 3 μM corrector; for EC50: read-out: EC50
Procedure, shortened: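 Here the cells express ΔF508-CFTR with horseradish peroxidase inserted in extracellular loop 4, so only rescued channel at the surface gives luminescent signal. Compounds act on their own, 20 h at the reduced temperature of 33 °C; values are percent activity relative to DMSO and a 3 μM corrector.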

T1 sequence (P13569 with tags, fused parts or gaps DEL508-508): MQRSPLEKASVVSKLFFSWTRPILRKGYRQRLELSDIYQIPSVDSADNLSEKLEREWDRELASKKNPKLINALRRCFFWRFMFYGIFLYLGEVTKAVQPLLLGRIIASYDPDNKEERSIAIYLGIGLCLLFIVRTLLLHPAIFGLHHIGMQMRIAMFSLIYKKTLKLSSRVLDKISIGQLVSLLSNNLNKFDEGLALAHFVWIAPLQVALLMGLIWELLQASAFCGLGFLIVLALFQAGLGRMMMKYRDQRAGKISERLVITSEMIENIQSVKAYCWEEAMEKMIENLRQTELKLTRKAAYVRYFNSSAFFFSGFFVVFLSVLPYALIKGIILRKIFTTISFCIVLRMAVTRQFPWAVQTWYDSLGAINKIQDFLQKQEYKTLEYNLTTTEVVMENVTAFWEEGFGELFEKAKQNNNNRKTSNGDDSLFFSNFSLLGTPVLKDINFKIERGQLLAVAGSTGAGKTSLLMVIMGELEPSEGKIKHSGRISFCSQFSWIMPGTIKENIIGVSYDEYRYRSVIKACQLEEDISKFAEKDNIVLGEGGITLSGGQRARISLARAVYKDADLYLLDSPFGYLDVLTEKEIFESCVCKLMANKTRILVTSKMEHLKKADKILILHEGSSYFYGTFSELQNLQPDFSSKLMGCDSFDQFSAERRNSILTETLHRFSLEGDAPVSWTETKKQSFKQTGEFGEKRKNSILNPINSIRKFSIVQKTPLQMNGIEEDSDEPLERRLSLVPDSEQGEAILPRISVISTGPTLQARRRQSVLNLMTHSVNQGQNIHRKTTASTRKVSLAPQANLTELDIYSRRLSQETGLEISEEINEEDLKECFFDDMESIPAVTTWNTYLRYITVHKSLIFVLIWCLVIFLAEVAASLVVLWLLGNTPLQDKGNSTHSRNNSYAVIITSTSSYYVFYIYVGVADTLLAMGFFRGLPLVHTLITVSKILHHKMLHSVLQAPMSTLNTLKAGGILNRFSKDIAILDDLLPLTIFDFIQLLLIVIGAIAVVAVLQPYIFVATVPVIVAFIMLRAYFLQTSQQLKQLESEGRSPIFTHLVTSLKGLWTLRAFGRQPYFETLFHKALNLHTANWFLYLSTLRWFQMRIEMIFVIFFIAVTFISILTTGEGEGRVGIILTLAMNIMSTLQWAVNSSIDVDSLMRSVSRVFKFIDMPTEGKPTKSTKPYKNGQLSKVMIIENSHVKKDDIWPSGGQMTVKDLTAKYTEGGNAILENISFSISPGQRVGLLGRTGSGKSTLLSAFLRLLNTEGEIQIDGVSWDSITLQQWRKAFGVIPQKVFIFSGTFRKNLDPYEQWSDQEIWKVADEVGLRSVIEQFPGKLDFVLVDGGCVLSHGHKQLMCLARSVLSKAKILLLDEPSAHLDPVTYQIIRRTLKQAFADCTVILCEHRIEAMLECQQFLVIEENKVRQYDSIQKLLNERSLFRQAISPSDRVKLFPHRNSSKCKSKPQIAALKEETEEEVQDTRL

Row | Compound | % Activation [1] | EC50 [1] | % Activation [2] | EC50 [2]
1 | COC1CCC(Oc2cc(C(=O)O)nc3c2c(C)nn3-c2ccccc2)CC1 (stereo not shown) [compound 376, 4-[(4-methoxycyclohexyl)oxy]-3-methyl-1-phenyl-1H-pyrazolo[3,4-b]pyridine-6-carboxylic acid] | 289.4% | 1140 nM | 109.7% | 1610 nM
2 | Cc1nn(-c2ccccc2)c2nc(C(=O)O)cc(OCC(F)C3CCOCC3)c12 (stereo not shown) [compound 377, 4-[2-fluoro-2-(oxan-4-yl)ethoxy]-3-methyl-1-phenyl-1H-pyrazolo[3,4-b]pyridine-6-carboxylic acid] | 295.65% | 1500 nM | 95.185% | 1670 nM
3 | Cc1nn(-c2ccccc2)c2nc(C(=O)O)cc(OCC3(F)CCN(C)C3)c12 (stereo not shown) [compound 378, 4-[(3-fluoro-1-methylpyrrolidin-3-yl)methoxy]-3-methyl-1-phenyl-1H-pyrazolo[3,4-b]pyridine-6-carboxylic acid] | 140.5% | 3340 nM | 14.56% | 5010 nM
4 | Cc1nn(-c2ccccc2)c2nc(C(=O)O)cc(OC[C@@H](F)C3CCN(C)CC3)c12 [compound 379, 4-[(2S)-2-fluoro-2-(1-methylpiperidin-4-yl)ethoxy]-3-methyl-1-phenyl-1H-pyrazolo[3,4-b]pyridine-6-carboxylic acid] | 128.5% | 5010 nM | 4.874% | 5010 nM
5 | Cc1nn(-c2ccccc2)c2nc(C(=O)O)cc(OC[C@H](F)C3CCN(C)CC3)c12 [compound 380, 4-[(2R)-2-fluoro-2-(1-methylpiperidin-4-yl)ethoxy]-3-methyl-1-phenyl-1H-pyrazolo[3,4-b]pyridine-6-carboxylic acid] | 141.7% | 950 nM | 14.735% | 5010 nM
6 | Cc1nn(-c2ccccc2)c2nc(C(=O)O)cc(OCC3(F)CCCN(C4COC4)C3)c12 (stereo not shown) [compound 381, 4-{[3-fluoro-1-(oxetan-3-yl)piperidin-3-yl]methoxy}-3-methyl-1-phenyl-1H-pyrazolo[3,4-b]pyridine-6-carboxylic acid] | 182.9% | 1670 nM | 17.695% | 5010 nM
7 | Cc1nn(-c2ccccc2)c2nc(C(=O)O)cc(OCC3CCC(F)(F)C3)c12 (stereo not shown) [compound 382, 4-[(3,3-difluorocyclopentyl)methoxy]-3-methyl-1-phenyl-1H-pyrazolo[3,4-b]pyridine-6-carboxylic acid] | 268.1% | 1410 nM | 80.645% | 1670 nM
8 | Cc1nn(-c2ccccc2)c2nc(C(=O)O)cc(OCC(=O)N3CCCCC3)c12 [compound 383, 3-methyl-4-[2-oxo-2-(piperidin-1-yl)ethoxy]-1-phenyl-1H-pyrazolo[3,4-b]pyridine-6-carboxylic acid] | 129.7% | 5010 nM | 16.587% | 5010 nM
9 | Cc1nn(-c2ccccc2)c2nc(C(=O)O)cc(OCC3(S(C)(=O)=O)CCC3)c12 [compound 384, 4-{[1-(methanesulfonyl)cyclobutyl]methoxy}-3-methyl-1-phenyl-1H-pyrazolo[3,4-b]pyridine-6-carboxylic acid] | 123% | 5010 nM | 8.1785% | 5010 nM
10 | Cc1nn(-c2ccccc2)c2nc(C(=O)O)cc(OCCN(CC(C)C)C3CC3)c12 [compound 385, 4-{2-[cyclopropyl(2-methylpropyl)amino]ethoxy}-3-methyl-1-phenyl-1H-pyrazolo[3,4-b]pyridine-6-carboxylic acid] | 238.75% | 1670 nM | 54.89% | 1670 nM
11 | Cc1nn(-c2ccccc2)c2nc(C(=O)O)cc(OCC3(C)CC(F)(F)C3)c12 [compound 386, 4-[(3,3-difluoro-1-methylcyclobutyl)methoxy]-3-methyl-1-phenyl-1H-pyrazolo[3,4-b]pyridine-6-carboxylic acid] | 250.65% | 1440 nM | 64.285% | 1310 nM
12 | Cc1nn(-c2ccccc2)c2nc(C(=O)O)cc(OCC3(CF)CC3)c12 [compound 387, 4-{[1-(fluoromethyl)cyclopropyl]methoxy}-3-methyl-1-phenyl-1H-pyrazolo[3,4-b]pyridine-6-carboxylic acid] | 224.5% | 1670 nM | 65.365% | 1670 nM
13 | COCCC1(COc2cc(C(=O)O)nc3c2c(C)nn3-c2ccccc2)CC1 [compound 388, 4-{[1-(2-methoxyethyl)cyclopropyl]methoxy}-3-methyl-1-phenyl-1H-pyrazolo[3,4-b]pyridine-6-carboxylic acid] | 171.6% | 1460 nM | 50.555% | 1670 nM
14 | Cc1nn(-c2ccccc2)c2nc(C(=O)O)cc(OCC3CCCC3(F)F)c12 (stereo not shown) [compound 389, 4-[(2,2-difluorocyclopentyl)methoxy]-3-methyl-1-phenyl-1H-pyrazolo[3,4-b]pyridine-6-carboxylic acid] | 280.6% | 1290 nM | 101.73% | 1670 nM
15 | CC(C)Oc1nn(-c2ccccc2)c2nc(C(=O)O)cc(-c3ccc(N4CCOCC4)cc3)c12 [compound 390, 4-[4-(morpholin-4-yl)phenyl]-1-phenyl-3-[(propan-2-yl)oxy]-1H-pyrazolo[3,4-b]pyridine-6-carboxylic acid] | 362% | 272 nM | 177.8% | 585 nM
16 | COCC1CCN(c2cc(C(=O)O)nc3c2c(C(C)C)nn3-c2ccc(F)cc2)CC1 [compound 391, 1-(4-fluorophenyl)-4-[4-(methoxymethyl)piperidin-1-yl]-3-(propan-2-yl)-1H-pyrazolo[3,4-b]pyridine-6-carboxylic acid] | 528.7% | 374 nM | 306.23% | 590 nM
17 | CC(C)c1nn(-c2ccnc(N3CCCC3)c2)c2nc(C(=O)O)cc(-c3ccc(N4CCC(C#N)CC4)cc3)c12 [compound 392, 4-[4-(4-cyanopiperidin-1-yl)phenyl]-3-(propan-2-yl)-1-[2-(pyrrolidin-1-yl)pyridin-4-yl]-1H-pyrazolo[3,4-b]pyridine-6-carboxylic acid] | 519.35% | 323 nM | 302% | 345 nM
18 | COC1CCN(c2cc(C(=O)O)nc3c2c(C(C)C)nn3-c2ccc(F)cc2)CC1 [compound 393, 1-(4-fluorophenyl)-4-(4-methoxypiperidin-1-yl)-3-(propan-2-yl)-1H-pyrazolo[3,4-b]pyridine-6-carboxylic acid] | 454.3% | 314 nM | 258.8% | 558 nM
19 | CC(C)c1nn(-c2ccc(F)cc2)c2nc(C(=O)O)cc(N3CCC(CO)CC3)c12 [compound 394, 1-(4-fluorophenyl)-4-[4-(hydroxymethyl)piperidin-1-yl]-3-(propan-2-yl)-1H-pyrazolo[3,4-b]pyridine-6-carboxylic acid] | 392.57% | 677 nM | 235.1% | 1490 nM

— patent publication US9796711B2, “Substituted pyrazolo[3,4-b]pyridin-6-carboxylic acids and method of use” (AbbVie S.àr.l., priority 2015, dated 2017)
